Experimental data from ChEMBL document CHEMBL1147463, “Synthesis and anticancer activity of side chain analogs of the crambescidin alkaloids” (2004).

Assays:
Assay type in all cases: functional
[1] = Murine tumor cell selectivity was measured as zone unit differential between (C38) colon adenocarcinoma and (CFU) normal bone marrow in disk diffusion soft agar colony formation assay at a concentration of 75 ug/disk
[2] = Murine tumor cell selectivity as zone unit differential between ([…]) murine cell line and (CFU) normal bone marrow in disk diffusion soft agar colony formation assay at 75 ug/disk.
[3] = Human tumor selectivity was measured as zone unit differential between (H125) lung small cell carcinoma and (CEM) lymphocytic leukemia in disk diffusion soft agar colony formation assay at a concentration of 75 ug/disk
[4] = Murine tumor cell selectivity as zone unit differential between (C38) colon adenocarcinoma and ([…]) murine cell line in disk diffusion soft agar colony formation assay at 75 ug/disk.
[5] = Murine tumor cell selectivity was measured as zone unit differential between ([…]) murine cell line and (CFU) normal bone marrow in disk diffusion soft agar colony formation assay at a concentration of 5 ug/disk
[6] = Murine tumor cell selectivity was measured as zone unit differential between (C38) colon adenocarcinoma and (CFU) normal bone marrow in disk diffusion soft agar colony formation assay at a concentration of 5 ug/disk
[7] = Human tumor selectivity was measured as zone unit differential between (H125) lung small cell carcinoma and (CEM) lymphocytic leukemia in disk diffusion soft agar colony formation assay at a concentration of 5 ug/disk
[8] = Human tumor selectivity was measured as zone unit differential between (H116) colon tumor and (CEM) lymphocytic leukemia in disk diffusion soft agar colony formation assay at a concentration of 5 ug/disk
[9] = Murine tumor cell selectivity was measured as zone unit differential between (C38) colon adenocarcinoma and ([…]) murine cell line in disk diffusion soft agar colony formation assay at a concentration of 5 ug/disk

SMILES | Selectivity [1] | Selectivity [2] | Selectivity [3] | Selectivity [4] | Selectivity [5] | Selectivity [6] | Selectivity [7] | Selectivity [8] | Selectivity [9]
CC[C@H]1C=CCC[C@@]2(C[C@@H]3CC[C@H]4[C@H](C(=O)OCCCCCCCCCCCCCCCC(=O)N(CCCN)C[C@@H](O)CCN)[C@@]5(CCC[C@@H](C)O5)NC(=[N+]34)N2)O1.Cl.Cl.[Cl-] | 50 | 50 | 50 | 0 | – | – | – | – | –
CC[C@H]1C=CCC[C@@]2(C[C@@H]3CC[C@@H]4[C@H](C(=O)OCCCCCCCCCCCCCCC(=O)[O-])[C@]5(CCC[C@@H](C)O5)NC(=[N+]34)N2)O1.Cl [GUANIDINO ACID] | 100 | -100 | 100 | 200 | – | – | – | – | –
CC[C@H]1C=CCC[C@@]2(C[C@@H]3CC[C@@H]4[C@@H](C(=O)OC/C=C/c5ccccc5)[C@]5(CCC[C@@H](C)O5)NC(=[N+]34)N2)O1.[Cl-] | – | – | – | – | 50 | 100 | 200 | 100 | 50
CC[C@H]1C=CCC[C@@]2(C[C@@H]3CC[C@@H]4[C@H](C(=O)OCCCCCC(=O)[O-])[C@]5(CCC[C@@H](C)O5)NC(=[N+]34)N2)O1.Cl [GUANIDINO ACID] | 0 | 200 | 150 | -200 | – | – | – | – | –
CC[C@H]1C=CCC[C@@]2(C[C@@H]3CC[C@@H]4[C@H](C(=O)OCCC(C)C)[C@]5(CCC[C@@H](C)O5)NC(=[N+]34)N2)O1.[Cl-] | – | – | – | – | -50 | 0 | 150 | 50 | 50
CC[C@H]1C=CCC[C@@]2(C[C@@H]3CC[C@@H]4[C@H](C(=O)OCCCCCC(=O)N(CCCN)C[C@@H](O)CCN)[C@]5(CCC[C@@H](C)O5)NC(=[N+]34)N2)O1.Cl.Cl.[Cl-] | 0 | 300 | -50 | -300 | – | – | – | – | –
CC[C@H]1C=CCC[C@@]2(C[C@@H]3CC[C@@H]4[C@H](C(=O)OCCCCCCCC(=O)N(CCCN)C[C@@H](O)CCN)[C@]5(CCC[C@@H](C)O5)NC(=[N+]34)N2)O1.Cl.Cl.[Cl-] | 100 | 300 | -50 | -200 | – | – | – | – | –
CCOC(=O)[C@H]1[C@H]2CC[C@H]3C[C@@]4(CCC=C[C@H](CC)O4)NC(=[N+]32)N[C@@]12CCC[C@@H](C)O2.[Cl-] | – | – | – | – | 200 | 150 | 100 | 0 | -50
CC[C@H]1C=CCC[C@@]2(C[C@@H]3CC[C@@H]4[C@@H](C(=O)[O-])[C@]5(CCC[C@@H](C)O5)NC(=[N+]34)N2)O1.Cl | 200 | 300 | 50 | -100 | – | – | – | – | –
CC[C@H]1C=CCC[C@@]2(C[C@@H]3CC[C@H]4[C@@H](C(=O)OCCCCCCCCCCCCCCCC(=O)N(CCCN)C[C@@H](O)CCN)[C@@]5(CCC[C@@H](C)O5)NC(=[N+]34)N2)O1.Cl.Cl.[Cl-] | 0 | 50 | 100 | -50 | – | – | – | – | –
CC[C@H]1C=CCC[C@@]2(C[C@@H]3CC[C@@H]4[C@H](C(=O)OCCCCCCCC(=O)O)[C@]5(CCC[C@@H](C)O5)NC(=[N+]34)N2)O1.[Cl-] [GUANIDINO ACID] | 200 | 100 | -50 | 100 | – | – | – | – | –
CC[C@H]1C=CCC[C@@]2(C[C@@H]3CC[C@@H]4[C@H](C(=O)OCCCCCCCCCCCCCCCCCC(=O)O)[C@]5(CCC[C@@H](C)O5)NC(=[N+]34)N2)O1.[Cl-] [GUANIDINO ACID] | 100 | 0 | 150 | 100 | – | – | – | – | –
CC[C@H]1C=CCC[C@@]2(C[C@@H]3CC[C@@H]4[C@H](C(=O)OCCCCCCCCCCCC(=O)N(CCCN)C[C@@H](O)CCN)[C@]5(CCC[C@@H](C)O5)NC(=[N+]34)N2)O1.Cl.Cl.[Cl-] | 100 | 50 | 100 | 50 | – | – | – | – | –
CC[C@H]1C=CCC[C@@]2(C[C@@H]3CC[C@@H]4[C@H](C(=O)OCCCCCCCCCCCCCCC(=O)N(CCCN)C[C@@H](O)CCN)[C@]5(CCC[C@@H](C)O5)NC(=[N+]34)N2)O1.Cl.Cl.[Cl-] | 150 | 100 | 400 | 50 | – | – | – | – | –
CC[C@H]1C=CCC[C@@]2(C[C@@H]3CC[C@@H]4[C@H](C(=O)OCc5ccccc5)[C@]5(CCC[C@@H](C)O5)NC(=[N+]34)N2)O1.[Cl-] | – | – | – | – | 50 | 100 | 150 | 50 | 50
CC[C@H]1C=CCC[C@@]2(C[C@@H]3CC[C@@H]4[C@H](C(=O)OCCCCCCCCCCCCCCCCCC(=O)N(CCCN)C[C@@H](O)CCN)[C@]5(CCC[C@@H](C)O5)NC(=[N+]34)N2)O1.Cl.Cl.[Cl-] | 150 | 100 | 150 | 50 | – | – | – | – | –
CC[C@H]1C=CCC[C@@]2(C[C@@H]3CC[C@@H]4[C@H](C(=O)OCCCCCCCCCC(=O)N(CCCN)C[C@@H](O)CCN)[C@]5(CCC[C@@H](C)O5)NC(=[N+]34)N2)O1.Cl.Cl.[Cl-] | 100 | 300 | -50 | 0 | – | – | – | – | –
CC[C@H]1C=CCC[C@@]2(C[C@@H]3CC[C@@H]4[C@H](C(=O)OCCCCCCCCCC(=O)O)[C@]5(CCC[C@@H](C)O5)NC(=[N+]34)N2)O1.[Cl-] [GUANIDINO ACID] | 100 | -200 | 50 | 300 | – | – | – | – | –
CC[C@H]1C=CCC[C@@]2(C[C@@H]3CC[C@@H]4[C@H](C(=O)OCC5CC5)[C@]5(CCC[C@@H](C)O5)NC(=[N+]34)N2)O1.[Cl-] | – | – | – | – | 100 | 300 | 150 | 100 | 200
CC[C@H]1C=CCC[C@@]2(C[C@@H]3CC[C@@H]4[C@H](C(=O)OCCCCCCCCCCCCCCCC(=O)O)[C@]5(CCC[C@@H](C)O5)NC(=[N+]34)N2)O1.[Cl-] [CRAMBESCIDIN 657] | 200 | 50 | 100 | 150 | – | – | – | – | –
CC[C@H]1C=CCC[C@@]2(C[C@@H]3CC[C@@H]4[C@H](C(=O)OCCCCCCCCCCCCCCCC(=O)N(CCCN)C[C@@H](O)CCN)[C@]5(CCC[C@@H](C)O5)NC(=N2)N34)O1.Cl.Cl.Cl [CRAMBESCIDIN 800 TRIHYDROCHLORIDE] | -50 | 150 | 50 | -200 | – | – | – | – | –
CC[C@H]1C=CCC[C@@]2(C[C@@H]3CC[C@@H]4[C@H](C(=O)OCCCCCCCCCCCC(=O)O)[C@]5(CCC[C@@H](C)O5)NC(=[N+]34)N2)O1.[Cl-] [GUANIDINO ACID] | 250 | 50 | 200 | 200 | – | – | – | – | –
CC[C@H]1C=CCC[C@@]2(C[C@@H]3CC[C@H]4[C@@H](C(=O)OCCCCCCCCCCCCCCCC(=O)O)[C@@]5(CCC[C@@H](C)O5)NC(=[N+]34)N2)O1.[Cl-] | 50 | -50 | 150 | 100 | – | – | – | – | –
